Target: T1, human β-secretase (Homo sapiens, UniProt P56817)
T1 construct: The soluble part of the human β-secretase (AA 1-AA 460) was cloned; made in house
Assay: TR-FRET assay (β-secretase enzyme, sBACE-Fc)
Assay type: biochemical
Conditions: read-out: IC50 in TR-FRET assay
Procedure: The enzyme used in the IGEN Cleavage-, Fluorescent-, TR-FRET- and BiaCore assays is described as follows:
The soluble part of the human β-secretase (AA 1-AA 460) was cloned into the ASP2-F10-1-IRES-GFP-neoK mammalian expression vector. The gene was fused to the Fc domain of IgG1 (affinity tag) and stably cloned into HEK 293 cells. Purified sBACE-Fc is stored in Tris buffer, pH 9.2 and has a purity of 95%.
Enzyme was diluted to 6 μg/mL and the substrate (Europium)[…](Qsy7) to 200 nM in reaction buffer (NaAcetate, chaps, triton x-100, EDTA pH 4.5). Compounds were diluted to the desired concentration in dimethyl sulfoxide (final dimethyl sulfoxide concentration in assay is 5%). […] Enzyme (9 μL) and 1 μL of compound in dimethyl sulfoxide was added to the plate, mixed and pre-incubated for 10 min. Substrate (10 μL) was added and the reaction proceeded in the dark for 15 min at RT. The reaction was stopped with the addition of 7 μL NaAcetate, pH 9. […] The dimethyl sulfoxide control defined the 100% activity level and 0% activity was defined by exclusion of the enzyme (using reaction buffer instead).

T1 sequence (P56817 22-460): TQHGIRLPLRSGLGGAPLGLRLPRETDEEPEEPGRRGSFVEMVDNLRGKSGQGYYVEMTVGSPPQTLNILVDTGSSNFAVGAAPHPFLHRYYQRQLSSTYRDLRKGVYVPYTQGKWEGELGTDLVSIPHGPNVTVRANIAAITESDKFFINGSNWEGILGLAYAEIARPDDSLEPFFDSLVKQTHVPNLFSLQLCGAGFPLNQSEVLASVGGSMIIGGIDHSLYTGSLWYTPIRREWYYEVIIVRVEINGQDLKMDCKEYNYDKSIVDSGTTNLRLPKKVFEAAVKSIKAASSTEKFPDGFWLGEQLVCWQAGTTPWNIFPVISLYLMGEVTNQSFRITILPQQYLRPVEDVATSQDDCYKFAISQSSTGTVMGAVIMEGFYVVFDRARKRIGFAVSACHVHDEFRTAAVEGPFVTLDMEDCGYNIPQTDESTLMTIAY

Compound	IC50 [nM]
COc1cccc(-c2cccc(C3(c4ccc(OS(=O)(=O)C(C)C)cc4)N=C(N)N4CCN=C43)c2)c1 (centres unmarked) [Example 80, 4-[5-Amino-7-(3′-methoxybiphenyl-3-yl)-2,7-dihydro-3H-imidazo[1,5-a]imidazol-7-yl]phenyl propane-2-sulfonate 0.5 acetate]	1380
CC(C)S(=O)(=O)Oc1ccc(C2(c3cccc(-c4cc(Cl)cc(Cl)c4)c3)N=C(N)N3CCN=C32)cc1 (centres unmarked) [Example 81, 4-[5-Amino-7-(3′,5′-dichlorobiphenyl-3-yl)-2,7-dihydro-3H-imidazo[1,5-a]imidazol-7-yl]phenyl propane-2-sulfonate 0.5 acetate]	417
CC(C)S(=O)(=O)Oc1ccc(C2(c3cccc(-c4cccc(Cl)c4)c3)N=C(N)N3CCN=C32)cc1 (centres unmarked) [Example 82, 4-[5-Amino-7-(3′-chlorobiphenyl-3-yl)-2,7-dihydro-3H-imidazo[1,5-a]imidazol-7-yl]phenyl propane-2-sulfonate 0.5 acetate]	484
CC(C)S(=O)(=O)Oc1ccc(C2(c3cccc(-c4cccnc4)c3)N=C(N)N3CCN=C32)cc1 (centres unmarked) [Example 83, 4-[5-Amino-7-(3-pyridin-3-ylphenyl)-2,7-dihydro-3H-imidazo[1,5-a]imidazol-7-yl]phenyl propane-2-sulfonate 0.75 acetate]	2510
CC(C)S(=O)(=O)Oc1ccc(C2(c3cccc(-c4cccnc4F)c3)N=C(N)N3CCN=C32)cc1 (centres unmarked) [Example 84, 4-{5-Amino-7-[3-(2-fluoropyridin-3-yl)phenyl]-2,7-dihydro-3H-imidazo[1,5-a]imidazol-7-yl}phenyl propane-2-sulfonate 0.75 acetate]	2510
COc1cncc(-c2cccc(C3(c4ccc(OS(=O)(=O)C(C)C)cc4)N=C(N)N4CCN=C43)c2)c1 (centres unmarked) [Example 85, 4-{5-Amino-7-[3-(5-methoxypyridin-3-yl)phenyl]-2,7-dihydro-3H-imidazo[1,5-a]imidazol-7-yl}phenyl propane-2-sulfonate 0.5 acetate]	1030
NC1=NC(c2ccc(OS(=O)(=O)C(F)(F)F)cc2)(c2cccc(-c3cccc(Cl)c3)c2)C2=NCCN12 (centres unmarked) [Example 90, 4-[5-Amino-7-(3′-chlorobiphenyl-3-yl)-2,7-dihydro-3H-imidazo[1,5-a]imidazol-7-yl]phenyl trifluoromethanesulfonate 0.75 acetate]	113
NC1=NC(c2ccccc2)(c2cccc(Br)c2)C2=NCCCN12 (centres unmarked) [Example 98, 8-(3-Bromophenyl)-8-phenyl-2,3,4,8-tetrahydroimidazo[1,5-a]pyrimidin-6-amine]	727
CS(=O)(=O)Oc1cccc(C2(c3cccc(-c4cc(C(F)(F)F)cc(C(F)(F)F)c4)c3)N=C(N)N3CCCN=C32)c1 (centres unmarked) [Example 114, 3-{6-Amino-8-[3′,5′-bis(trifluoromethyl)biphenyl-3-yl]-2,3,4,8-tetrahydroimidazo[1,5-a]pyrimidin-8-yl}phenyl methanesulfonate]	246
NC1=NC(c2cccc(OS(=O)(=O)C(F)(F)F)c2)(c2cccc(-c3cccc(Cl)c3)c2)C2=NCCCN12 (centres unmarked) [Example 115, 3-[6-Amino-8-(3′-chlorobiphenyl-3-yl)-2,3,4,8-tetrahydroimidazo[1,5-a]pyrimidin-8-yl]phenyl trifluoromethanesulfonate]	106
CS(=O)(=O)Oc1cccc(C2(c3cccc(-c4cccc(Cl)c4)c3)N=C(N)N3CCCN=C32)c1 (centres unmarked) [Example 117, 3-[6-Amino-8-(3′-chlorobiphenyl-3-yl)-2,3,4,8-tetrahydroimidazo[1,5-a]pyrimidin-8-yl]phenyl methanesulfonate]	252
CS(=O)(=O)Oc1cccc(C2(c3cccc(-c4cncnc4)c3)N=C(N)N3CCCN=C32)c1 (centres unmarked) [Example 120, 3-[6-Amino-8-(3-pyrimidin-5-ylphenyl)-2,3,4,8-tetrahydroimidazo[1,5-a]pyrimidin-8-yl]phenyl methanesulfonate]	272
CS(=O)(=O)Oc1cccc(C2(c3cccc(-c4cc(Cl)cnc4F)c3)N=C(N)N3CCCN=C32)c1 (centres unmarked) [Example 121, 3-{6-Amino-8-[3-(5-chloro-2-fluoropyridin-3-yl)phenyl]-2,3,4,8-tetrahydroimidazo[1,5-a]pyrimidin-8-yl}phenyl methanesulfonate]	893
Cc1cc(C)cc(-c2cccc(C3(c4cccc(OS(C)(=O)=O)c4)N=C(N)N4CCCN=C43)c2)c1 (centres unmarked) [Example 122, 3-[6-Amino-8-(3′,5′-dimethylbiphenyl-3-yl)-2,3,4,8-tetrahydroimidazo[1,5-a]pyrimidin-8-yl]phenyl methanesulfonate]	69
CCCS(=O)(=O)Oc1cccc(C2(c3cccc(-c4cc(Cl)cc(Cl)c4)c3)N=C(N)N3CCCN=C32)c1 (centres unmarked) [Example 123, 3-[6-Amino-8-(3′,5′-dichlorobiphenyl-3-yl)-2,3,4,8-tetrahydroimidazo[1,5-a]pyrimidin-8-yl]phenyl propane-1-sulfonate]	106
CCCS(=O)(=O)Oc1cccc(C2(c3cccc(-c4cncnc4)c3)N=C(N)N3CCCN=C32)c1 (centres unmarked) [Example 125, 3-[6-Amino-8-(3-pyrimidin-5-ylphenyl)-2,3,4,8-tetrahydroimidazo[1,5-a]pyrimidin-8-yl]phenyl propane-1-sulfonate]	51
NC1=NC(c2cccc(OS(=O)(=O)C3CC3)c2)(c2cccc(-c3cc(Cl)cc(Cl)c3)c2)C2=NCCCN12 (centres unmarked) [Example 126, 3-[6-Amino-8-(3′,5′-dichlorobiphenyl-3-yl)-2,3,4,8-tetrahydroimidazo[1,5-a]pyrimidin-8-yl]phenyl cyclopropanesulfonate]	156
NC1=NC(c2cccc(OS(=O)(=O)C(F)(F)F)c2)(c2cccc(-c3cc(Cl)cc(Cl)c3)c2)C2=NCCCN12 (centres unmarked) [Example 128, 3-[6-Amino-8-(3′,5′-dichlorobiphenyl-3-yl)-2,3,4,8-tetrahydroimidazo[1,5-a]pyrimidin-8-yl]phenyl trifluoromethanesulfonate]	214
NC1=NC(c2cccc(OS(=O)(=O)C(F)(F)F)c2)(c2cccc(-c3cccnc3)c2)C2=NCCCN12 (centres unmarked) [Example 130, 3-[6-Amino-8-(3-pyridin-3-ylphenyl)-2,3,4,8-tetrahydroimidazo[1,5-a]pyrimidin-8-yl]phenyl trifluoromethanesulfonate]	137

Other lines, results leading:

IC50 [nM]	Compound
844	CS(=O)(=O)Oc1ccc(C2(c3cccc(-c4cccnc4F)c3)N=C(N)N3CCN=C32)cc1 (centres unmarked) [Example 78, 4-{5-Amino-7-[3-(2-fluoropyridin-3-yl)phenyl]-2,7-dihydro-3H-imidazo[1,5-a]imidazol-7-yl}phenyl methanesulfonate 0.5 acetate]
436	CS(=O)(=O)Oc1ccc(C2(c3cccc(-c4cc(Cl)cnc4F)c3)N=C(N)N3CCN=C32)cc1 (centres unmarked) [Example 79, 4-{5-Amino-7-[3-(5-chloro-2-fluoropyridin-3-yl)phenyl]-2,7-dihydro-3H-imidazo[1,5-a]imidazol-7-yl}phenyl methanesulfonate 0.5 acetate]
1200	NC1=NC(c2cccc(Br)c2)(c2cccc(OS(=O)(=O)C(F)(F)F)c2)C2=NCCCN12 (centres unmarked) [Example 113, 3-[6-Amino-8-(3-bromophenyl)-2,3,4,8-tetrahydroimidazo[1,5-a]pyrimidin-8-yl]phenyl trifluoromethanesulfonate]
285	CS(=O)(=O)Oc1cccc(C2(c3cccc(-c4cc(Cl)cc(Cl)c4)c3)N=C(N)N3CCCN=C32)c1 (centres unmarked) [Example 116, 3-[6-Amino-8-(3′,5′-dichlorobiphenyl-3-yl)-2,3,4,8-tetrahydroimidazo[1,5-a]pyrimidin-8-yl]phenyl methanesulfonate]
645	COc1cccc(-c2cccc(C3(c4cccc(OS(C)(=O)=O)c4)N=C(N)N4CCCN=C43)c2)c1 (centres unmarked) [Example 118, 3-[6-Amino-8-(3′-methoxybiphenyl-3-yl)-2,3,4,8-tetrahydroimidazo[1,5-a]pyrimidin-8-yl]phenyl methanesulfonate]
754	CS(=O)(=O)Oc1cccc(C2(c3cccc(-c4cccnc4)c3)N=C(N)N3CCCN=C32)c1 (centres unmarked) [Example 119, 3-[6-Amino-8-(3-pyridin-3-ylphenyl)-2,3,4,8-tetrahydroimidazo[1,5-a]pyrimidin-8-yl]phenyl methanesulfonate]
528	CCCS(=O)(=O)Oc1cccc(C2(c3cccc(-c4cccc(OC)c4)c3)N=C(N)N3CCCN=C32)c1 (centres unmarked) [Example 124, 3-[6-Amino-8-(3′-methoxybiphenyl-3-yl)-2,3,4,8-tetrahydroimidazo[1,5-a]pyrimidin-8-yl]phenyl propane-1-sulfonate]
177	COc1cccc(-c2cccc(C3(c4cccc(OS(=O)(=O)C5CC5)c4)N=C(N)N4CCCN=C43)c2)c1 (centres unmarked) [Example 127, 3-[6-Amino-8-(3′-methoxybiphenyl-3-yl)-2,3,4,8-tetrahydroimidazo[1,5-a]pyrimidin-8-yl]phenyl cyclopropanesulfonate]
464	COc1cccc(-c2cccc(C3(c4cccc(OS(=O)(=O)C(F)(F)F)c4)N=C(N)N4CCCN=C43)c2)c1 (centres unmarked) [Example 129, 3-[6-Amino-8-(3′-methoxybiphenyl-3-yl)-2,3,4,8-tetrahydroimidazo[1,5-a]pyrimidin-8-yl]phenyl trifluoromethanesulfonate]
538	NC1=NC(c2cccc(OS(=O)(=O)C(F)(F)F)c2)(c2cccc(-c3cc(Cl)cnc3F)c2)C2=NCCCN12 (centres unmarked) [Example 131, 3-{6-Amino-8-[3-(5-chloro-2-fluoropyridin-3-yl)phenyl]-2,3,4,8-tetrahydroimidazo[1,5-a]pyrimidin-8-yl}phenyl trifluoromethanesulfonate]
